# Experimental data as given in patent publication US8343945B2, “Carriers, formulations, methods for formulating unstable active agents for external application and uses thereof” (Foamix Ltd., priority 2007, dated 2013).
# “Also recorded” adds a separate entry of the source.
# Key:
# [1] = From the text: In one or more embodiments of the present disclosure, the foamable composition includes a potent solvent, in addition to or in place of one of the hydrophobic solvents, polar solvents or emollients of the composition. A potent solvent is a solvent other than mineral oil that solubilizes a specific active agent substantially better than a hydrocarbon solvent such as mineral oil or petrolatum.
# [2] = Minocycline HCl compatibility tests with excipients (colour change, HPLC assay); assay type: physicochemical; settings: for Compatibility with Minocycline HCL: Summary, compatibility tested after the storage for up to 3 weeks
# Method: About 0.5 g foam or pre-foam formulation is dissolved with diluent (65% phosphate buffer: 35% Acetonitrile (ACN)) in a 25 mL volumetric flask. The sample is shaken […] on an inverted shaker stand for 10 min at room temperature. The resulting suspension is centrifuged for 5 minutes at 4000 rpm. The supernatant is separated by vacuum pump and filtered thereafter through a 0.45 μm PTFE+GL filter. The first few drops of the filtrate are discarded. The resultant clear solution layer is analyzed by HPLC using columnRP-8. The content of MCH is calculated against an MCH standard 0.4 mg/mL (concentration). The content of 4-epiminocycline is calculated against MCH standard 0.02 mg/mL (concentration).
# Color is tested by visual observation and in particular by comparison to “Pantone® formula guide solid uncoated” colors. […] Minocycline changes color to orange/greenish with oxidation or complexation. These oxidized colors are not desirable. Colors such as 609U/608U/610U are indicative of degradation by the tetracycline antibiotic.
# For convenience the excipients were divided into four different groups (I-IV).
# Different compositions of hydrophilic and hydrophobic solvents containing minocycline HCl were prepared by weighing the antibiotic in a glass vial and shaking overnight with each solvent investigated (Group I and II).
# Mixtures of Minocycline HCl with solid excipients like titanium dioxide, stearyl alcohol, myristyl alcohol etc were prepared by suspending Minocycline HCl in oil with stirring and then adding the solid ingredient as a powder with stirring at room temperature (Group III an IV).
# Oxidation of minocycline after the storage at various temperatures was detected by color change. Assay for content of the active pharmaceutical ingredient (API) and degradation product (4-epiminocycline) was determined in some samples.
# A series of experiments were performed to evaluate which mixture of components/ingredients were compatible or incompatible with minocycline. Each component or combinations of components were mixed with either 1.1% or 2.2% Minocycline HCl. The glass vials containing the formulations were wrapped in aluminum—and were subjected to a range of temperatures 25° C.; 30° C.; 40° C.; 50 C; for between one week to about 3 weeks. The best results are shown as “compatible no oxidation”.
# [3] = Doxycycline Hyclate compatibility test with excipients; assay type: physicochemical; settings: for Visual inspection after the storage at 25° C.: stored at 25° C. for two weeks; for Visual inspection after the storage at 40° C.: stored at 40° C. for two weeks; for Visual inspection after the storage at 50° C.: stored at 50° C. for two weeks
# Method: (§1) Different compositions of hydrophilic and hydrophobic solvents containing Doxycycline Hyclate (Set I and Set II) and Doxycycline Monohydrate (Set III) were prepared by weighing the antibiotic in a glass vial and shaking overnight with each solvent investigated.
# Group II included Doxycycline Hyclate mixed with various vehicles with addition of antioxidants like alpha tocopherol, butylated hydroxytolyene (BHT), ascorbic acid.
# [4] = Doxycycline Monohydrate compatibility test with excipients; assay type: physicochemical; settings: for Compatibility with Doxycycline Monohydrate: Summary, compatibility tested after the storage for up to 3 weeks; for Compatibility with Doxycycline Monohydrate (text): as summarised in text, 40° and 50° C. for two weeks where stated; for Visual inspection after the storage at 25° C. / Visual inspection after the storage at 50° C. / Visual inspection after the storage at 40° C. / Visual inspection at T-0: Mixtures of 1.04% w/w of Doxycycline Monohydrate with the ingredient; for Visual inspection after the storage at 25° C.: stored at 25° C. for two weeks; for Visual inspection after the storage at 50° C.: stored at 50° C. for two weeks; for Visual inspection after the storage at 40° C.: stored at 40° C. for two weeks
# Method: as §1, with “investigated. Mixtures of Doxycycline salts 1.04% w/w with solid excipients were prepared in a similar way as for Minocycline HCl.” for “investigated.”
# A similar compatibility test was performed on another form of Doxycycline-Doxycycline Monohydrate. Table 17b and Table 18.
# [5] = Summary, compatibility tested after the storage for up to 3 weeks
# [6] = 40° C. and 50° C. for two weeks where stated
# [7] = Group II, mixture with 1.1% of Minocycline HCl, 10 days at 40° C.
# [8] = Group II, mixture with 1.1% of Minocycline HCl, T-0
# [9] = Mixtures of 1.04% w/w of Doxycycline Hyclate with the ingredient
molecule,measurement,setting,value
Cc1cnc(NC(=O)C2=C(O)c3ccccc3S(=O)(=O)N2C)s1 [Meloxicam],Solubility in mineral oil,[1],< 0.001%
C/C(=C\C(=O)OCCCCCCCCC(=O)O)C[C@@H]1OC[C@H](C[C@@H]2O[C@H]2[C@@H](C)[C@H](C)O)[C@@H](O)[C@H]1O [Mupirocin],Solubility in dimethyl isosorbide,[1],more than 1%
same,Solubility in glycofurol,[1],more than 1%
same,Solubility in mineral oil,[1],< 0.01%
same,Solubility in polyethylene glycol 400 (PEG 400),[1],more than 1%
same,Solubility in propylene glycol,[1],more than 1%
CCCCCCCCCCCCCCO [Myristyl alcohol],Compatibility with Minocycline HCL,[2],Yes
same,Compatibility with Doxycycline Hyclate,[3]; [5],Yes
CC(C)CCCCCCCCCCCCCCC(=O)O [Isostearic Acid],Compatibility with Minocycline HCL,[2],No
same,Compatibility with Doxycycline Hyclate,[3]; [5],Yes
CCCCCCCCCCC(CO)CCCCCCCC (centres unmarked) [Octyldodecanol],Compatibility with Minocycline HCl,[2],full compatibility; also recorded: compatible
same,Compatibility with Minocycline HCL,[2],Yes
same,Compatibility with Doxycycline Hyclate,[3]; [6],incompatibility
same,Compatibility with Doxycycline Hyclate,[3]; [5],No
same,Compatibility with Doxycycline Monohydrate,[4],No
same,Compatibility with Doxycycline Monohydrate (text),[4],incompatibility
CCCCCCCCCCCCCCCCCCO [Stearyl alcohol],Compatibility with Minocycline HCL,[2],Yes
same,Compatibility with Doxycycline Hyclate,[3]; [5],Yes
Sorbitan Monostearate,Compatibility with Minocycline HCL,[2],Yes
same,Compatibility with Doxycycline Hyclate,[3]; [5],Yes
OCCCCO [Butylene glycol],Compatibility with Minocycline HCL,[2],No
same,Compatibility with Doxycycline Hyclate,[3]; [5],No
same,Visual inspection after the storage at 25° C.,[4],Orange solution
same,Visual inspection after the storage at 50° C.,[4],black solution
same,Compatibility with Doxycycline Monohydrate,[4],No
CCO [Ethanol 95%],Compatibility with Minocycline HCl,[2],changed their colour from yellow to orange
same,"4-epiminocycline Assay (% w/w), 10 days at 40° C.",[2]; [7],0.39 % w/w
same,"Minocycline Assay (% w/w), 10 days at 40° C.",[2]; [7],0.52 % w/w
same,"4-epiminocycline Assay (% w/w), T-0",[2]; [8],0.021 % w/w
same,"Minocycline Assay (% w/w), T-0",[2]; [8],0.97 % w/w
same,Compatibility with Minocycline HCL,[2],No
same,Compatibility with Doxycycline Hyclate,[3]; [6],stable
same,Compatibility with Doxycycline Hyclate,[3]; [5],Yes
same,Visual inspection after the storage at 25° C.,[4],Brown solution
same,Visual inspection after the storage at 40° C.,[4],Brown solution
same,Visual inspection after the storage at 50° C.,[4],Black solution
same,Compatibility with Doxycycline Monohydrate,[4],No
same,Compatibility with Doxycycline Monohydrate (text),[4],changed their colour from yellow to orange
same,Compatibility with Doxycycline Monohydrate (text),[4]; listed as ethanol 95%,oxidized
Sorbitan Monolaurate,Compatibility with Minocycline HCL,[2],No
same,Visual inspection after the storage at 25° C.,[3]; [9],Brown solution
same,Visual inspection after the storage at 40° C.,[3]; [9],Brown solution
same,Visual inspection after the storage at 50° C.,[3]; [9],Black solution
same,Compatibility with Doxycycline Hyclate,[3]; [5],No
same,Visual inspection at T-0,[4],Brown mixture
same,Visual inspection after the storage at 25° C.,[4],orange solution
same,Visual inspection after the storage at 40° C.,[4],Brown solution
same,Visual inspection after the storage at 50° C.,[4],brown solution
same,Compatibility with Doxycycline Monohydrate,[4],No
CO[C@H]1CO[C@H]2[C@@H]1OC[C@H]2OC [Dimethyl Isosorbide],Compatibility with Minocycline HCL,[2],No
same,Visual inspection at T-0,"[3]; Mixtures of 1.04% w/w of Doxycycline Hyclate with the ingredient, T-0 (two-week study)",yellow solution
same,Visual inspection after the storage at 25° C.,[3]; [9],Yellow solution
same,Visual inspection after the storage at 40° C.,[3]; [9],Brownish orange
same,Visual inspection after the storage at 50° C.,[3]; [9],Orange solution
same,Compatibility with Doxycycline Hyclate,[3]; [5],No
same,Visual inspection at T-0,[4],yellow solution
same,Visual inspection after the storage at 25° C.,[4],orange solution
same,Visual inspection after the storage at 40° C.,[4],orange orange
same,Visual inspection after the storage at 50° C.,[4],Orange solution
same,Compatibility with Doxycycline Monohydrate,[4],No
CC(C)OC(=O)CCCCC(=O)OC(C)C [Diisopropyl adipate],Compatibility with Minocycline HCL,[2],Yes
same,Compatibility with Doxycycline Hyclate,[3]; [5],Yes
same,Compatibility with Doxycycline Monohydrate,[4],No
CCCCCCCC/C=C\CCCCCCCCO [Oleyl alcohol],Compatibility with Minocycline HCL,[2],Yes
same,Compatibility with Doxycycline Hyclate,[3]; [5],Yes
C[Si]1(C)O[Si](C)(C)O[Si](C)(C)O[Si](C)(C)O[Si](C)(C)O1 [Cyclomethicone 5 NF],Compatibility with Minocycline HCL,[2],Yes
same,Compatibility with Doxycycline Hyclate,[3]; [5],Yes
same,Compatibility with Doxycycline Monohydrate,[4],Yes
